# Assay results published in patent US10265395B2, “Adjuvant compositions and related methods” (priority 2015, dated 2019).
# Columns and labels:
# [1] = test system: BSA; experiment: ELISA seroconversion to BSA in mice, BSA/adjuvant stability, time 0 and 6 months (Example 4); assay type: in vivo; settings: for Geometric Means: Time point 6 Months; for Normalized: Day 28/29, Table 18 (to BSA only GMT of the same storage temperature)
# [2] = test system: BSA; experiment: ELISA seroconversion to BSA in CF-1 mice, BSA/adjuvant stability at 12 months (Example 8); assay type: in vivo; settings: 12 Month; for Geometric Mean (ELISA to BSA): adjuvants at 4X, > 20 considered positive
# [3] = Time 0, Day 32, mice SC 50 ug BSA/0.1 mL on days 0 and 14, value of 10 used for no seroconversion
# [4] = 6 Month, Day 28/29, S = stored stability sample, F = fresh, storage in the label
# [5] = Day 13, mice SC 50 ug BSA/0.1 mL
# [6] = Day 28/29, mice SC 50 ug BSA/0.1 mL days 0 and 14
Substance,"Incidence (# Mice Seroconverted/# Mice Treated) ([1]; Time 0, Day 32)","Geometric Mean (ELISA to BSA) [1, 3]",Geometric Means ([1]; Fresh),Geometric Means ([1]; Stability Ambient - Storage (18-27° C.)),Geometric Means ([1]; Stability Cold - Storage (2-7° C.)),"Incidence (# Mice Seroconverted/# Mice Treated) ([1]; 6 Month, Day 28/29)","Geometric Mean (ELISA to BSA) [1, 4]",Incidence ([2]; Day 13),"Geometric Mean (ELISA to BSA) [2, 5]",Incidence ([2]; Day 28/29),"Geometric Mean (ELISA to BSA) [2, 6]",Normalized ([1]; 6 Month),"Normalized (Geomean BSA/Adj06 ÷ Geomean BSA/PBS) ([1]; Time 0, Day 32)"
BSA/PBS,8/10,290,98,243,149,–,–,–,–,–,–,–,–
F-BSA,–,–,–,–,–,6/10,98,5/9,20,7/10,149,–,–
S-BSA/2-7° C.,8/10,290,–,–,–,8/10,149,2/9,15,5/10,86,1,1
S-BSA/RT,–,–,–,–,–,8/10,243,5/10,25,7/10,184,1,–
